Measurements from patent US12336977B2, “Nitenin analogue compounds and their use in the treatment of chronic and acute pain” (SEA4US-BIOTECNOLOGIA E RECURSOS MARINHOS, LDA., priority 2019, dated 2025).
pIC50: −log10 of the molar value. Entries after “also recorded” stand apart in the source; their conditions may differ.

How the values were obtained:
[1] = test system: K+ currents of small diameter dorsal-root ganglion neuron; test: voltage dependence of steady state of inactivation of K+ currents in sdDRGn; format: cell-based, rat
Excerpt: (§1) One can observe a shift to hyperpolarized values during the nitenin treatment. The relationships were better fit with the sum of two Boltzmann functions, showing that in both conditions there are two components: one more hyperpolarized component (component 1) and one other more depolarized component (component 2).
as §1, with “treatment with the compound of formula VI.” for “nitenin treatment.”
as §1, with “treatment with the compound of formula VII.” for “nitenin treatment.”
as §1, with “treatment with the compound of formula VIII.” for “nitenin treatment.”
For the electrophysiological recordings of the ex vivo material, voltage-clamp recordings were performed on neurons isolated from rat DRGs (and TGs). Recordings were performed from the soma that often contained the proximal fraction of axon, 1 hour after the end of the cell isolation process (includes enzymatic and mechanical treatment).

hKv1.3 = biological target: T1, hKv1.3 (Homo sapiens, UniProt P22001); test: voltage-clamp of K+ currents in CHO-K1 cells expressing hKv1.3; format: cell-based; details: inhibition measured at end of 1000 ms pulse, read-out: IC50 of K+ current inhibition, hKv1.3
T1 construct: expressed in transfected cells; host or cells: CHO-K1
Excerpt: (§2) As measure of Ifast, peak current was used, whereas, as a measure of Islow, the current value was obtained at the end of the command pulse (see FIG. 1). Values are expressed as mean±S.E.M. For Islow, a dual phase relationship can be observed. […] Kv1.3 channel is the most sensitive channel (around 6-fold more sensitive in comparison to the “next most sensitive one”, the Kv1.2) Kv1.2, Kv1.1 and Kv1.6 show similar, intermediate sensitivities to nitenin. In opposition, Kv1.4 is the less sensitive (˜31 times less sensitive).
(§3) Additionally, drug sensitivity to different voltage-activated channels was assessed by studying the drug effect on currents recorded from chinese hamster ovary (CHO) cells stably transfected with different human Kv channel subunits (Kv1.1, Kv1.2, Kv1.3, Kv1.4 and Kv1.6).
(§4) The higher sensitivity of nitenin to Islow (rather than Ifast) and the nature of the nitenin sensitive current (see nitenin sensitive current in FIG. 1.b) urged to understand which K^+ channel(s) do underline Islow. By considering which Kv channel subunits are known to be expressed in DRG, and the biophysical nature of the nitenin-sensitive current, nitenin was tested on whole-cell currents recorded from CHO cells expressing hKv1.1, hKv1.2, hKv1.3, hKv1.4 and hKv1.6. […] Current inhibition was measured at the end of the 1000 ms pulse.

hKv1.1 = biological target: T2, hKv1.1 (Homo sapiens, UniProt Q09470); test: voltage-clamp of K+ currents in CHO-K1 cells expressing hKv1.1; format: cell-based
T2 construct: expressed in transfected cells; host or cells: CHO-K1
Excerpt: as §2, §3, §4

[2] = test system: CFA rats (knee administrations of Complete Freund's Adjuvant on Wistar rats); test: inflammatory pain rat model CFA, von Frey filaments; format: in vivo
Procedure: […]
(§5) For efficacy studies, nociception was assessed in all animals from all pain models by regular behavioural monitoring, by quantifying the sensitivity to mechanical stimuli with Von Frey filaments, and consequently reflecting hyperalgesia when hypersensitive. […] Intraperitoneal administration was tested in CFA rats (23 days after CFA injection), with 10 times the nitenin quantity administered by I.V. injections. […] Oral administration of nitenin through stomach gavages (endogastric), with 100 times the quantity administered by I.V. injections, was tested in CCI rats (31 days after surgery). […]

[3] = test system: COP rats (CFA injection in the whisker pad of Wistar rats); test: chronic orofacial pain (COP) rat model, von Frey filaments; format: in vivo; details: I.V. 1 μg/mL of blood
Excerpt: Values refer to the mechanical sensitivity to face stimulation (whiskers region) using calibrated von Frey Filaments, and consequently reflecting hyperalgesia when hypersensitive (black filled markers—ipsilateral, injured face-side; Open markers—contralateral, uninjured face-side). Dotted line refers to the average value of the ipsilateral face prior to the CFA injection. a) Induction of the model showing that 3 days after operation, the mechanical sensitivity of the ipsilateral face-sides increase markedly, whereas the one associated with the contralateral leg maintains relatively unchanged, similar to baseline values. […]
as §5

T1 sequence (P22001 whole entry): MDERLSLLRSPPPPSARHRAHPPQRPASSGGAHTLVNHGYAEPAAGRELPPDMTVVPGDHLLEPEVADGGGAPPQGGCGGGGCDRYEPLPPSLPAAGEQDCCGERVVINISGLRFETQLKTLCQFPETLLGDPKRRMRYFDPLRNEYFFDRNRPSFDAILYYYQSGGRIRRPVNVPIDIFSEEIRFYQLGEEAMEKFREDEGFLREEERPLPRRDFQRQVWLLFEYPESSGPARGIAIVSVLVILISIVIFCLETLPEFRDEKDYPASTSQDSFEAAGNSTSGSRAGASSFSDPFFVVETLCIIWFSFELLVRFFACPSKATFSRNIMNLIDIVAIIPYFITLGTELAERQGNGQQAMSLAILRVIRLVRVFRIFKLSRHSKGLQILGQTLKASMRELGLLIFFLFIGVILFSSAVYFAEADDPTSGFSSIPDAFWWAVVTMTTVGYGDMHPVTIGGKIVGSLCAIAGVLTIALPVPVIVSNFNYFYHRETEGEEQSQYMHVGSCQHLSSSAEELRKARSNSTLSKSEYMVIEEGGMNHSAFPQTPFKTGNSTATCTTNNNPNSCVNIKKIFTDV
T2 sequence (Q09470 whole entry): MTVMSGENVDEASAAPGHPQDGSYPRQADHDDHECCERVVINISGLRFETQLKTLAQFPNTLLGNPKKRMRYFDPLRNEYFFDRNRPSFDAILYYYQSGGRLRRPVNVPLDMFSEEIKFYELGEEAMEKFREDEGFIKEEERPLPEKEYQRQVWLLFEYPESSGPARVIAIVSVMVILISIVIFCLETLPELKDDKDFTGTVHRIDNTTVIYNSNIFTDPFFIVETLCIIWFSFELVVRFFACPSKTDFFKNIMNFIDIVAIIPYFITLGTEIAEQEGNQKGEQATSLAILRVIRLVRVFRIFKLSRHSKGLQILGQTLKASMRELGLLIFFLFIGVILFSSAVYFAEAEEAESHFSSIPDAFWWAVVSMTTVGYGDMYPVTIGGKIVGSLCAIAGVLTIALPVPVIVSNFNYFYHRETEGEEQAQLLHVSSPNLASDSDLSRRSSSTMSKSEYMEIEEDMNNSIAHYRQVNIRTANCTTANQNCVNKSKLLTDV

C/C(=C\C1C/C(=C/CCc2ccoc2)C(=O)O1)CCCc1ccoc1 (centres unmarked) [nitenin]
effect on I-V curves of the voltage dependence of inactivation [1]: shifts to more hyperpolarised potentials | Vh2 (voltage of half maximum current, component 2) of steady state inactivation ([1]; nitenin 0.1 μg/ml, 0.29 μM, neuron from injured side of CCI rat 28 days after surgery, control −26.3): −47.0 mV | Vh1 (voltage of half maximum current, component 1) of steady state inactivation ([1]; nitenin 0.1 μg/ml, 0.29 μM, neuron from injured side of CCI rat 28 days after surgery, control −73.3): −95.3 mV | pIC50 (hKv1.3): 6.72 | lower sensitivity of hKv1.1 relative to Kv1.3 (hKv1.1): ~6 × | sensitivity to mechanical stimuli (von Frey) ([2]; I.V. 1 μg/mL of blood, 3, 18 and 23 days after CFA): noticeable decrease of sensitivity to mechanical stimuli | mitigation effect of pain (score values) ([2]; intraperitoneal, 10 times the I.V. quantity, 23 days after CFA injection): clear mitigation effect of pain with score values reaching control levels | mechanical sensitivity at the whisker pad region (von Frey) [3]: reaching values not different to those obtained during baseline; also recorded: marked reduction of mechanical sensitivity
